Test: physchem
Format: physicochemical
Details: reversed-phase c18 hplc, pH 2.7
Procedure: The logP values were measured in accordance with EEC Directive 79/831 Annex V.A8 by HPLC (High Performance Liquid Chromatography) using reversed-phase columns (C 18) by the following methods: • [a] The LC-MS determination in the acidic range is effected at pH 2.7 with 0.1% aqueous formic acid and acetonitrile (contains 0.1 % formic acid) as eluents; linear gradient from 10 % acetonitrile to 95 % acetonitrile.

Structure (SMILES) | chromatographic logP
CC(C)OC1Cc2cccc(NC(=O)c3cn(C)nc3C(F)F)c2C1 (stereo not drawn) [compound 2] | 2.71
CC1c2cccc(NC(=O)c3cn(C)nc3C(F)F)c2CC1(C)C (stereo not drawn) [compound 5] | 3.53
CC1Cc2c(NC(=O)c3cn(C)nc3C(F)F)cccc2C1(C)C (stereo not drawn) [compound 6] | 3.55

The remaining lines, values ahead:

chromatographic logP | Structure (SMILES)
1.42 | Cn1cc(C(=O)Nc2cccc3c2CC(O)C3)c(C(F)F)n1 (stereo not drawn) [compound 1]
3.77 | CC(C)C1Cc2cccc(NC(=O)c3cn(C)nc3C(F)F)c2C1 (stereo not drawn) [compound 3]
4.14 | CC(C)CC1Cc2cccc(NC(=O)c3cn(C)nc3C(F)F)c2C1 (stereo not drawn) [compound 4]
